Measured values: US12077503B2, “Substituted cyclic amides and their use as herbicides” (FMC CORPORATION, priority 2015, dated 2024)

Tests used:
Format in all cases: in vivo
[1] = test system: redroot pigweed (Amaranthus retroflexus); assay: Test G Pre-Emergence Protocol; conditions: Amaranthus retroflexus, pre-emergence, 312 h, evaluated after 13 days
How it was run: (§1)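 Seeds were sown in standard soil and kept one day in a glasshouse (24/16° C day/night, 14 h light, 65% humidity), then sprayed with compound in acetone/water (50:50) containing 0.5% Tween 20 at 15.625, 62.5 or 250 g/ha. Damage was scored after 13 days (0 = none, 100 = total).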

corn (Zea mays) [2] = assay: Test G Pre-Emergence Protocol; conditions: Zea mays, pre-emergence, 312 h, evaluated after 13 days
How it was run: as §1

[3] = test system: velvetleaf (Abutilon theophrasti); assay: Test G Pre-Emergence Protocol; conditions: Abutilon theophrasti, pre-emergence, 312 h, evaluated after 13 days
How it was run: as §1

[4] = test system: barnyardgrass (Echinochloa crus-galli); assay: Test G Pre-Emergence Protocol; conditions: Echinochloa crus-galli, pre-emergence, 312 h, evaluated after 13 days
How it was run: as §1

[5] = test system: giant foxtail (Setaria faberi); assay: Test G Pre-Emergence Protocol; conditions: Setaria faberi, pre-emergence, 312 h, evaluated after 13 days
How it was run: as §1

[6] = test system: ivy-leaved morning glory (Ipomoea hederacea); assay: Test G Pre-Emergence Protocol; conditions: Ipomoea, pre-emergence, 312 h, evaluated after 13 days
How it was run: as §1

[7] = test system: redroot pigweed (Amaranthus retroflexus); assay: Test G Post-Emergence Protocol; conditions: Amaranthus retroflexus, post-emergence, 312 h, read-out: Pigweed, Redroot damage rating
How it was run: (§2)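 Seedlings grown 8 days in soil in a glasshouse (24/16 °C day/night, 14 h light, 65% humidity) were sprayed post-emergence with compound in acetone/water 50:50 plus 0.5% Tween 20 at 15.625, 62.5 or 250 g/ha. Damage was scored after 13 days on a 0–100 scale (100 = total damage).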

corn (Zea mays) [8] = assay: Test G Post-Emergence Protocol; conditions: Zea mays, post-emergence, 312 h, read-out: Corn damage rating
How it was run: as §2

[9] = test system: velvetleaf (Abutilon theophrasti); assay: Test G Post-Emergence Protocol; conditions: Abutilon theophrasti, post-emergence, 312 h, read-out: Velvetleaf damage rating
How it was run: as §2

[10] = test system: barnyardgrass (Echinochloa crus-galli); assay: Test G Post-Emergence Protocol; conditions: Echinochloa crus-galli, post-emergence, 312 h, read-out: Barnyardgrass damage rating
How it was run: as §2

[11] = test system: giant foxtail (Setaria faberi); assay: Test G Post-Emergence Protocol; conditions: Setaria faberi, post-emergence, 312 h, read-out: Foxtail, Giant damage rating
How it was run: as §2

[12] = test system: ivy-leaved morning glory (Ipomoea hederacea); assay: Test G Post-Emergence Protocol; conditions: Ipomoea, post-emergence, 312 h, read-out: Morningglory, Ivy-leaved damage rating
How it was run: as §2

[13] = 15.625 g ai/ha, evaluated after 13 days (100=total damage to plant; 0=no damage to plant)
[14] = 62.5 g ai/ha, evaluated after 13 days, 100=total damage to plant, 0=no damage to plant
[15] = 250 g ai/ha, evaluated after 13 days, 100=total damage to plant, 0=no damage to plant

Compound: CN1C[C@@H](c2ccc(C(F)(F)F)cc2)[C@H](C(=O)Nc2cscn2)C1=O (racemic) [Compound 1659]
- pest or weed control at 15.625 g/ha ([1]; 15.625 g ai/ha, read-out: Pigweed, Redroot damage rating (100=total damage to plant; 0=no damage to plant)): 0%
- pest or weed control at 62.5 g/ha ([1]; 62.5 g ai/ha, 100=total damage to plant, 0=no damage to plant, read-out: Pigweed, Redroot damage rating): 0%
- pest or weed control at 250 g/ha ([1]; 250 g ai/ha, read-out: Pigweed, Redroot damage rating (100=total damage to plant; 0=no damage to plant)): 0%
- plant injury at 15.625 g/ha (corn (Zea mays) [2]; 15.625 g ai/ha, read-out: Corn damage rating (100=total damage to plant; 0=no damage to plant)): 0%
- plant injury at 62.5 g/ha (corn (Zea mays) [2]; 62.5 g ai/ha, 100=total damage to plant, 0=no damage to plant, read-out: Corn damage rating): 0%
- plant injury at 250 g/ha (corn (Zea mays) [2]; 250 g ai/ha, read-out: Corn damage rating (100=total damage to plant; 0=no damage to plant)): 0%
- pest or weed control at 15.625 g/ha ([3]; 15.625 g ai/ha, read-out: Velvetleaf damage rating (100=total damage to plant; 0=no damage to plant)): 0%
- pest or weed control at 62.5 g/ha ([3]; 62.5 g ai/ha, 100=total damage to plant, 0=no damage to plant, read-out: Velvetleaf damage rating): 0%
- pest or weed control at 250 g/ha ([3]; 250 g ai/ha, read-out: Velvetleaf damage rating (100=total damage to plant; 0=no damage to plant)): 0%
- pest or weed control at 15.625 g/ha ([4]; 15.625 g ai/ha, read-out: Barnyardgrass damage rating (100=total damage to plant; 0=no damage to plant)): 0%
- pest or weed control at 62.5 g/ha ([4]; 62.5 g ai/ha, 100=total damage to plant, 0=no damage to plant, read-out: Barnyardgrass damage rating): 0%
- pest or weed control at 250 g/ha ([4]; 250 g ai/ha, read-out: Barnyardgrass damage rating (100=total damage to plant; 0=no damage to plant)): 0%
- pest or weed control at 15.625 g/ha ([5]; 15.625 g ai/ha, read-out: Foxtail, Giant damage rating (100=total damage to plant; 0=no damage to plant)): 0%
- pest or weed control at 62.5 g/ha ([5]; 62.5 g ai/ha, 100=total damage to plant, 0=no damage to plant, read-out: Foxtail, Giant damage rating): 0%
- pest or weed control at 250 g/ha ([5]; 250 g ai/ha, read-out: Foxtail, Giant damage rating (100=total damage to plant; 0=no damage to plant)): 0%
- pest or weed control at 15.625 g/ha ([6]; 15.625 g ai/ha, read-out: Morningglory, Ivy-leaved damage rating (100=total damage to plant; 0=no damage to plant)): 0%
- pest or weed control at 62.5 g/ha ([6]; 62.5 g ai/ha, 100=total damage to plant, 0=no damage to plant, read-out: Morningglory, Ivy-leaved damage rating): 0%
- pest or weed control at 250 g/ha ([6]; 250 g ai/ha, read-out: Morningglory, Ivy-leaved damage rating (100=total damage to plant; 0=no damage to plant)): 0%
- pest or weed control at 15.625 g/ha [7, 13]: 0%
- pest or weed control at 62.5 g/ha [7, 14]: 0%
- pest or weed control at 250 g/ha [7, 15]: 20%
- plant injury at 15.625 g/ha (corn (Zea mays) [8]; [13]): 0%
- plant injury at 62.5 g/ha (corn (Zea mays) [8]; [14]): 0%
- plant injury at 250 g/ha (corn (Zea mays) [8]; [15]): 10%
- pest or weed control at 15.625 g/ha [9, 13]: 0%
- pest or weed control at 62.5 g/ha [9, 14]: 0%
- pest or weed control at 250 g/ha [9, 15]: 0%
- pest or weed control at 15.625 g/ha [10, 13]: 0%
- pest or weed control at 62.5 g/ha [10, 14]: 0%
- pest or weed control at 250 g/ha [10, 15]: 20%
- pest or weed control at 15.625 g/ha [11, 13]: 0%
- pest or weed control at 62.5 g/ha [11, 14]: 0%
- pest or weed control at 250 g/ha [11, 15]: 40%
- pest or weed control at 15.625 g/ha [12, 13]: 0%
- pest or weed control at 62.5 g/ha [12, 14]: 0%
- pest or weed control at 250 g/ha [12, 15]: 0%
